According to patent publication US20210236580A1, “Methods and Compositions for Mitigating Symptoms of Acute Respiratory Distress Syndrome” (Sytheon Ltd, priority 2020, published 2021):

Columns and labels:
IL-8 [1] = test: IL-8 secretion in LPS-induced human bronchial epithelial cells (HBEpC), ELISA; format: cell-based; conditions: 48 hrs
Text: (§1) HBEpC provide an excellent model for all aspects of respiratory epithelial function and diseases, particularly those related to airway viral/bacterial infections, including tissue repair mechanisms, signaling changes and potential treatments relevant to lung injuries, mechanical and oxidative stress, inflammation, etc., including that arising from or associated with pulmonary diseases and smoking. In this study, the inflammatory cytokines IL-6 and IL-8 were induced through pretreatment of the HBEpC with lipopolysaccharide (Cat #L2630, Sigma, Saint Louis, Mo.). After 3 hours of treatment the test and control materials were added to the cultures which were then incubated at […] for 48 hrs. Thereafter the IL-8 and IL-6 levels of the test cultures were measured by ELISA.
(§2) Each experimental condition and control were assayed at least in six replicates and statistical significance assessed with paired Student test. In conducting the assay, total insoluble proteins were quantified to determine the effect of the test materials on cell proliferation according to the method described by Voigt (Voigt, W. Sulforhodamine B assay and chemosensitivity. Methods Mol Med. 2005; 110:39-48).

IL-6 [2] = test: IL-6 in LPS-exposed 3D ciliated airway tissue, sandwich ELISA; format: cell-based, human; conditions: 1 μg/ml LPS, 48 hours, 100 μg/ml
Description: Further dilutions were made in sterile distilled water (dH2O). […] After three hours of incubation with test materials, cells were exposed to endotoxin—1 μg/ml LPS (lipopolysaccharides from Escherichia coli O113:H10, Associates of Cape Cod, East Falmouth, Mass.) and the incubation continued for an additional 48 hours.
The tissue cultures were then evaluated for IL-6 which was quantified by Sandwich Elisa. All colorimetric measurements were performed using Molecular Devices microplate reader MAX190 and SoftMax3.1.2PRO software. Statistical significance was assessed with paired Student test. Deviations of ≥20% as compared to water control with p values below 0.05 were considered statistically significant.

interferon gamma = test: IFN-γ in medium of LPS-exposed 3D ciliated airway tissues, sandwich ELISA; format: cell-based, human; conditions: second value column of Table 6, 100 μg/ml
Description: (§6) The respective test materials were stored at room temperature and samples were solubilized in sterile water (LPS, TC, EMB) or DMSO (DEX) at 20 mg/ml, afterward all further dilutions were made in sterile distilled water. All test materials except LPS were assayed at 100 μg ml (LPS was added topically at 1 μg/ml on Day 2). Furthermore, TC and EMB were tested at 50 μg/ml and in two combinations: 50 μg/ml:50 μg/ml and 25 μg/ml:25 μg/ml. Samples were added to the feeder chamber medium contacting the basal side of the tissues on Day 1, then also topically on Day 2, together with LPS. All experimental conditions were tested in triplicates.
(§7) Twenty-four hours after pre-incubation with the test substances, the tissue cultures were exposed to 1 μg/ml endotoxin LPS and the incubation was continued for 48 additional hours. Following the incubation, the experiment tissue culture-conditioned medium was stored at −20° C. until further processing. Subsequently, IFN-α and IFN-γ were quantified in the tissue culture-conditioned medium by sandwich ELISA.

IL-8 [3] = test: IL-8 release by urban dust-stimulated human keratinocytes (ELISA); format: cell-based; conditions: keratinocytes + 100 ug/ml urban dust, 24 hours; 100 μM (39 μg/ml)
Description: (§3) Human Keratinocyte Cell Culture: Human adult epidermal keratinocytes were grown using EpiLife Media (60 μM calcium) supplemented with 0.2% v/v bovine pituitary extract, 1 μg/ml recombinant human insulin-like growth factor-I, 0.18 µg/ml hydrocortisone, 5 μg/ml bovine transferrin, 0.2 ng/ml human epidermal growth factor. The cells were cultured at 37 C and 5% CO2. When a sufficient number of cells had been grown, they were seeded into 24-well plates and grown until confluent. Once confluent the cells were cultured overnight in hydrocortisone free EpiLife Media.
(§4) Preparation of Urban Dust & treatment: Urban dust was obtained from Sigma Chemicals (Standard Reference Material 1649b) and prepared at 10 mg/ml in hydrocortisone free EpiLife media. The urban dust solution was then sonicated for 10 minutes on ice. The test material was prepared in hydrocortisone free media supplemented with 100 ug/ml urban dust. […] Finally, one set of cells was not exposed to urban dust and was used to establish a baseline for each cytokine. […]
(§5) A series of standards was prepared and 100 μl of each of these standards was dispensed into two wells (duplicates) in the ELISA well plate. […] Once a sufficient level of color development had occurred, 50 μl of stop solution […]) was added to each well and the plate was read at 460 nm.

interferon alpha = test: IFN-α in medium of LPS-exposed 3D ciliated airway tissues, sandwich ELISA; format: cell-based, human; conditions: first value column of Table 6, 100 μg/ml
Description: as §6, §7

IL-6 [4] = test: IL-6 release by urban dust-stimulated human keratinocytes (ELISA); format: cell-based; conditions: keratinocytes + 100 ug/ml urban dust, 24 hours; 100 μM (39 μg/ml)
Description: as §3, §4, §5

IL-6 [5] = test: IL-6 secretion in LPS-induced human bronchial epithelial cells (HBEpC), ELISA; format: cell-based; conditions: 48 hrs, 20 μM
Text: as §1, §2

IL-6R = molecular target: T1, IL-6R (Homo sapiens, UniProt P08887); conditions: Covid-19 patients, after treatment; preliminary findings; cited from earlier work
T1 construct: host or cells: endogenous receptor in Covid-19 patients (in vivo)
T1 sequence (P08887 20-468): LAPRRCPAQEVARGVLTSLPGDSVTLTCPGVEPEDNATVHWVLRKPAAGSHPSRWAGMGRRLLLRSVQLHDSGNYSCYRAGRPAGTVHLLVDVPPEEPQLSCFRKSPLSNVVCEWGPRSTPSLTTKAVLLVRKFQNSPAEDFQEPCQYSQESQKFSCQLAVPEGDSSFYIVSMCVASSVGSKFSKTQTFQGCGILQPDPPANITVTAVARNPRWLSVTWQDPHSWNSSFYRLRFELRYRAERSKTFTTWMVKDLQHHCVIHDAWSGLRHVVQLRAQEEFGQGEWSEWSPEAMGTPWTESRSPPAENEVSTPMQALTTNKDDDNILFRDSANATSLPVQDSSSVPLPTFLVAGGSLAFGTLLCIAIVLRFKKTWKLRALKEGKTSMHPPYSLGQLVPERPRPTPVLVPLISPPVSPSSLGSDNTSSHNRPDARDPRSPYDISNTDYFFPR

Compound | IL-8 (% control) (IL-8 [1]; 20 μM) | IL-8 (% control) (IL-8 [1]; 40 μM) | IL-6 (% control) (IL-6 [2]) | Interferon alpha (interferon gamma) | IL-8 (IL-8 [3]) | Interferon alpha (interferon alpha) | IL-6 (IL-6 [4]) | IL-6 (% control) (IL-6 [5]) | effect on fevers (IL-6R) | patients experiencing a reduced need for supplemental oxygen (IL-6R)
C[C@@H]1C[C@H]2[C@@H]3CCC4=CC(=O)C=C[C@]4(C)[C@@]3(F)[C@@H](O)C[C@]2(C)[C@@]1(O)C(=O)CO [Dexamethasone] | 98 % control | 91 % control | 123 % control | 20 pg/mL | 86.9 ± 24.5 pg/mL | 6 pg/mL | 61.0 ± 13.9 pg/mL | 77 % control | – | –
Actemra: humanized anti-IL-6R monoclonal antibody | – | – | – | – | – | – | – | – | rapidly reduced fevers | 75%
